Activity calls are given as the source filed them. The rule behind the calls is not given here.
Assays:
[1] = Stability of the compound in rabbit plasma assessed as retention rate at 200 to 1000 uM and measured upto 24 hrs by HPLC analysis; format: ADME, cell-free, Oryctolagus cuniculus; conditions: dose 200-1000 µM, read-out: Stability
[2] = system: Pseudomonas aeruginosa; experiment: Antibiofilm activity against Pseudomonas aeruginosa PAO1 assessed as inhibition of biofilm formation at 10 to 200 uM incubated for 24 hrs in presence of CaCl2 by crystal violet staining based microscopic analysis; format: functional, organism-based; conditions: dose 10-200 µM
[3] = system: Pseudomonas aeruginosa; experiment: Antibiofilm activity against Pseudomonas aeruginosa PAO1 assessed as disruption of preformed biofilm incubated for 4 hrs by crystal violet staining based microscopic analysis; format: functional, organism-based; conditions: PAO1, 4 h
[4] = system: Pseudomonas aeruginosa; experiment: Anti-adhesion activity against Pseudomonas aeruginosa PAO1 assessed as inhibition of adhesion ability incubated for 3 hrs using glass as substrate by colony-counting method; format: functional, organism-based; conditions: PAO1, 3 h
[5] = system: Pseudomonas aeruginosa; experiment: Anti-adhesion activity against Pseudomonas aeruginosa PAO1 assessed as inhibition of adhesion ability at 200 uM incubated for 3 hrs using glass as substrate by SEM analysis; format: functional, organism-based
[6] = system: A549; experiment: Cytotoxicity against human A549 cells assessed as reduction in cell viability at 2 mM incubated for 24 hrs by MTT assay; format: toxicity, cell-based; conditions: a549, 24 h, 2000 µM
[7] = Inhibition of quorum sensing system in Pseudomonas aeruginosa PAO1 assessed as decrease of pyocyanin production at 10 to 200 uM for 18 hrs by microplate reader analysis; conditions: dose 10-200 µM
[8] = system: Pseudomonas aeruginosa; experiment: Anti-adhesion activity against Pseudomonas aeruginosa PAO1 assessed as inhibition of adhesion ability at 200 uM incubated for 3 hrs using glass as substrate by colony-counting method; format: functional
[9] = Inhibition of quorum sensing system in Pseudomonas aeruginosa PAO1 assessed as downregulation of rhlR gene expression at 200 uM by qRT-PCR analysis
[10] = system: Pseudomonas aeruginosa; experiment: Antibiofilm activity against Pseudomonas aeruginosa PAO1 assessed as inhibition of biofilm formation incubated for 24 hrs in presence of CaCl2 by crystal violet staining based microscopic analysis; format: functional, organism-based; conditions: PAO1, 24 h
[11] = system: Pseudomonas aeruginosa; experiment: Anti-adhesion activity against Pseudomonas aeruginosa PAO1 to human A549 cells assessed as decrease in cell adhesion ability at 200 uM incubated for 3 hrs by DAPI staining based confocal microscopy; format: functional; set-up: scale not given: the % may be the effect or the level left
[12] = system: Pseudomonas aeruginosa; experiment: Antibiofilm activity against Pseudomonas aeruginosa PAO1 assessed as disruption of preformed biofilm at 200 uM incubated for 4 hrs by crystal violet staining based microscopic analysis; format: functional
[13] = system: Pseudomonas aeruginosa; experiment: Synergistic bactericidal activity against Pseudomonas aeruginosa PAO1 assessed as reduction in bacterial density at 200 uM incubated for 6 hrs in presence of azithromycin by colony-counting method; format: functional; set-up: scale not given: the % may be the effect or the level left
[14] = Inhibition of quorum sensing system in Pseudomonas aeruginosa PAO1 assessed as downregulation of […] gene expression at 200 uM by qRT-PCR analysis
[15] = system: Pseudomonas aeruginosa; experiment: Antibiofilm activity against Pseudomonas aeruginosa PAO1 assessed as inhibition of biofilm formation at 200 uM incubated for 24 hrs in presence of CaCl2 by crystal violet staining based microscopic analysis; format: functional
[16] = Toxicity in sheep red blood cells assessed as induction of hemolysis measured after 4 hr; format: cell-based, Ovis aries, Erythrocyte
[17] = system: Pseudomonas aeruginosa; experiment: Antibiofilm activity against Pseudomonas aeruginosa PAO1 assessed as disruption of preformed biofilm at 200 uM incubated for 4 hrs by SEM analysis; format: functional, organism-based
[18] = system: Pseudomonas aeruginosa; experiment: Synergistic bactericidal activity against Pseudomonas aeruginosa PAO1 assessed as reduction in bacterial density at 200 uM incubated for 1 hrs in presence of azithromycin by colony-counting method; format: functional; set-up: scale not given: the % may be the effect or the level left
[19] = molecular target: Elastase (Pseudomonas aeruginosa (strain ATCC 15692 / PAO1 / 1C / PRS 101 / LMG12228)) (UniProt P14756); experiment: Inhibition of Pseudomonas aeruginosa PAO1 elastase activity at 10 to 200 uM for 18 hrs by elastin Congo red based microplate reader analysis; conditions: dose 10-200 µM
[20] = system: Pseudomonas aeruginosa; experiment: Antibiofilm activity against Pseudomonas aeruginosa PAO1 assessed as disruption of preformed biofilm at 200 uM incubated for 4 hrs by Confocal microscopic analysis; format: functional, organism-based
[21] = system: Pseudomonas aeruginosa; experiment: Antibiofilm activity against Pseudomonas aeruginosa PAO1 assessed as inhibition of swarming motility at 200 uM for 18 hrs by motility assay; format: functional, organism-based
[22] = Toxicity in sheep red blood cells assessed as induction of hemolysis at 200 uM for 4 hr; format: cell-based, Ovis aries; conditions: erythrocyte
[23] = molecular target: T1, PA-I galactophilic lectin (Pseudomonas aeruginosa (strain ATCC 15692 / PAO1 / 1C / PRS 101 / LMG12228), UniProt Q05097); experiment: Binding affinity to Pseudomonas aeruginosa PAO1 LecA assessed as dissociation constant by ITC analysis
T1 sequence (Q05097 whole entry): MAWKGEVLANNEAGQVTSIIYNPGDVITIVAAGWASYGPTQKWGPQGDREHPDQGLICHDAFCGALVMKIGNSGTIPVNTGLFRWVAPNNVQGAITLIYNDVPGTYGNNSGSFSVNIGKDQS

[24] = Inhibition of quorum sensing system in Pseudomonas aeruginosa PAO1 assessed as decrease of pyocyanin production at 200 uM for 18 hrs by microplate reader analysis
[25] = Inhibition of quorum sensing system in Pseudomonas aeruginosa PAO1 assessed as downregulation of lasR gene expression at 200 uM by qRT-PCR analysis
[26] = system: Pseudomonas aeruginosa; experiment: Anti-adhesion activity against Pseudomonas aeruginosa PAO1 assessed as inhibition of adhesion ability at 50 ug/ml incubated for 3 hrs using glass as substrate by SEM analysis; format: functional, organism-based; conditions: dose 50.0 µg/ml
[27] = system: Pseudomonas aeruginosa; experiment: Bactericidal activity against Pseudomonas aeruginosa PAO1 assessed as reduction in bacterial density at 150 ug/ml incubated for 6 hrs by colony-counting method; format: functional; set-up: scale not given: the % may be the effect or the level left; conditions: dose 150 µg/ml
[28] = system: Pseudomonas aeruginosa; experiment: Anti-adhesion activity against Pseudomonas aeruginosa PAO1 assessed as inhibition of adhesion ability at 50 ug/ml incubated for 3 hrs using glass as substrate by colony-counting method; format: functional
[29] = system: Pseudomonas aeruginosa; experiment: Bactericidal activity against Pseudomonas aeruginosa PAO1 assessed as reduction in bacterial density at 150 ug/ml incubated for 1 hrs by colony-counting method; format: functional; set-up: scale not given: the % may be the effect or the level left; conditions: dose 150 µg/ml

Elastase (Pseudomonas aeruginosa (strain ATCC 15692 / PAO1 / 1C / PRS 101 / LMG12228)), sequence (P14756 198-498 limits assumed): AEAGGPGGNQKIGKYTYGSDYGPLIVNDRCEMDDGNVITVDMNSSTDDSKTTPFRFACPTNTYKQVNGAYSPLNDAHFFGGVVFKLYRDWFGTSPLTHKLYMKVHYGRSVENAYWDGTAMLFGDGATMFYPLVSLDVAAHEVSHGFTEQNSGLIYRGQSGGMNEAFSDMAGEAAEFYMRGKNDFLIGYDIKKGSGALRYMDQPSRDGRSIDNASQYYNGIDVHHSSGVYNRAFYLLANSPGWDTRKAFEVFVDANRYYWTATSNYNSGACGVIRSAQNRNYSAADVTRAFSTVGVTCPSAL

remaining at 24 h, up to 1000 µM [1]	EC50 [3]	IC50 [4]	inhibition [7]	inhibition [9]	IC50 [10]	inhibition [14]	inhibition [19]	Compound	Activity [6]	inhibition at 200 µM [8]	Activity [11]	Activity [12]	Activity [13]	inhibition at 200 µM [15]	HC50 at 4 h [16]	Activity [17]	Activity [18]	Activity [20]	Activity [21]	Activity [22]	also measured
> 70%	80 µM	200 µM	Active	Active	100 µM	Active	Active	O=C1N[C@@H](Cc2c[nH]c3ccccc23)C(=O)N[C@H]1CO[C@@H]1O[C@H](CO)[C@H](O)[C@H](O)[C@H]1O	90%	50%	29%	54%	7%	69%	> 10 mM	Active	81%	Active	Active	Non-Toxic	inhibition [2]: Active; inhibition [5]: Active; Kd [23]: 91.3 µM
	800 µM	800 µM	Active		600 µM			O=C1N[C@@H](Cc2c[nH]c3ccccc23)C(=O)N[C@H]1CO		16%	Active										inhibition [24]: 35%; inhibition [25]: 20%
> 70%	300 µM	500 µM	Active	Active	250 µM	Active	Active	O=C1N[C@@H](Cc2c[nH]c3ccccc23)C(=O)N[C@H]1CO[C@@H]1O[C@H](CO)[C@@H](O)[C@H](O)[C@H]1O	90%	32%	Active	47%	5%	44%	> 10 mM	Active	73%	Active	Active	Non-Toxic	
								CC[C@H]1OC(=O)[C@H](C)[C@@H](O[C@H]2C[C@@](C)(OC)[C@@H](O)[C@H](C)O2)[C@H](C)[C@@H](O[C@@H]2O[C@H](C)C[C@H](N(C)C)[C@H]2O)[C@](C)(O)C[C@@H](C)CN(C)[C@H](C)[C@@H](O)[C@]1(C)O [AZITHROMYCIN]													inhibition [26]: Active; Activity [27]: 27%; inhibition at 50 µg/mL [28]: 48%; Activity [29]: 99%
